Laboratory results reported in patent US4826815A, “Renin inhibiting compounds” (Abbott Laboratories, priority 1987, dated 1989).
One block for each compound: values may come before it.

Target: T1, human renal renin (Homo sapiens, UniProt P00797)
T1 construct: human renal renin, free from acid proteolytic activity; from tissue
T1 sequence (P00797 67-406): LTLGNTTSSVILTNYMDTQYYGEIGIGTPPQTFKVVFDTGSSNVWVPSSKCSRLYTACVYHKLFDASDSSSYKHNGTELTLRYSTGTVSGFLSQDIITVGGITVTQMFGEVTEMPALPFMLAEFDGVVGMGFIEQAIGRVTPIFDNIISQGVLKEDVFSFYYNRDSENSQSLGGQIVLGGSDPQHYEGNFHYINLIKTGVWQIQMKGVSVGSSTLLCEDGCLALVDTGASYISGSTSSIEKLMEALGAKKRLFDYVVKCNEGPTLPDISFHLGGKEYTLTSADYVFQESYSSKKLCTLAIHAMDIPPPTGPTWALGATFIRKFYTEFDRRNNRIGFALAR
Experiment: In vitro inhibition of human renal renin; angiotensin I formed measured by radioimmunoassay
Type: biochemical
Settings: human renin substrate (angiotensinogen), 37° C., pH 6.0
Protocol: At the end of the incubation, the amount of angiotensin I formed is measured by radioimmunoassay and the percent inhibition or renin is calculated.

SMILES: CC(C)CC(NC(=O)C(C)NC(=O)C(Cc1ccccc1)NC(=O)OC(C)(C)C)C(O)C[S+]([O-])C1CCCCC1 (stereo not drawn) [Example 55, Boc-Phe Ala amide of 3-amino-1-cyclohexyl sulfinyl-2-hydroxy-5-methylhexane]
Inhibition (@ 10^-5): 46%

SMILES: CC(C)CC(NC(=O)C(C)NC(=O)C(Cc1ccccc1)NC(=O)OC(C)(C)C)C(O)CSCc1ccccc1 (stereo not drawn) [Example 28, Boc-Phe-Ala amide of 3 amino 1-benzylmercapto-2 hydroxy-5-methylhexane]
Inhibition (@ 10^-5): 57%

SMILES: CC(C)(C)OC(=O)NC(Cc1ccccc1)C(=O)NC(Cc1cnc[nH]1)C(=O)NC(CC1CCCCC1)C(O)CS(=O)(=O)C1CCCCC1 (stereo not drawn) [Example 54, Boc-Phe-His amide of 3 amino-4-cyclohexyl-1-cyclohexylsulfonyl-2-hydroxybutane]
Inhibition (@ 10^-8): 81%

SMILES: O=C(NC(Cc1cnc[nH]1)C(=O)NC(CC1CCCCC1)C(O)CSC1CCCCC1)C(Cc1ccccc1)Cc1ccccc1 (stereo not drawn) [Example 81, Dba-His Amide of 3-amino-4-cyclohexyl-1-cyclohexylmercapto-2-hydroxybutane]
Inhibition (@ 10^-7): 71%

SMILES: CC(C)CC(NC(=O)C(C)NC(=O)C(Cc1ccccc1)NC(=O)OC(C)(C)C)C(O)CSC1CCCCC1 (stereo not drawn) [Example 29, Boc-Phe-Ala amide of 3-amino-1-cyclohexyl mercapto-2-hydroxy-5-methylhexane]
Inhibition (@ 10^-5): 94%

SMILES: CC(C)(C)CC(=O)NC(Cc1ccccc1)C(=O)NC(Cc1c[nH]cn1)C(=O)NC(CC1CCCCC1)C(O)CSC1CCCCC1 (stereo not drawn) [Example 82, Tba-Phe-His-Amide of 3-amino-4-cyclohexyl-1-cyclohexylmercapto-2-hydroxybutane]
Inhibition (@ 10^-8): 82%

SMILES: CC(C)(C)OC(=O)NC(Cc1ccccc1)C(=O)NC(Cc1cnc[nH]1)C(=O)NC(Cc1ccccc1)C(O)CSC1CCCCC1 (stereo not drawn) [Example 50, Boc-Phe-His amide of 3-amino-1-cyclohexylmercapto-2-hydroxy-4-phenylbutane]
Inhibition (@ 10^-7): 89%

The remaining lines, values ahead:

Inhibition (@ 10^-5): 56%
SMILES: CC(C)CC(NC(=O)C(C)NC(=O)C(Cc1ccccc1)NC(=O)OC(C)(C)C)C(O)CSc1ccccc1 (stereo not drawn) [Example 25, Boc-Phe-Ala amide of 3-amino-2-hydroxy-5-methyl-1 phenylmercaptohexane]

Inhibition (@ 10^-6): 63%
SMILES: CC(C)CC(=O)NCC(O)C(CC(C)C)NC(=O)C(Cc1cnc[nH]1)NC(=O)C(Cc1ccccc1)NC(=O)OC(C)(C)C (stereo not drawn) [Example 79, Boc-Phe-His Amide of 3-Amino-2- hydroxy-1-(isovalerylamino)-5-methylhexane]

Inhibition (@ 10^-5): 31%
SMILES: CC(C)CC(NC(=O)C(C)NC(=O)C(Cc1ccccc1)NC(=O)OC(C)(C)C)C(O)CNc1ccccc1 (stereo not drawn) [Example 31, Boc-Phe-Ala amide of 3-amino-2-hydroxy-5-methyl-1-phenylaminohexane]

Inhibition (@ 10^-8): 80%
SMILES: CC(C)SCC(O)C(CC1CCCCC1)NC(=O)C(Cc1cnc[nH]1)NC(=O)C(Cc1ccccc1)NC(=O)OC(C)(C)C (stereo not drawn) [Example 51, Boc-Phe-His amide of 3 amino-4-cyclohexyl-2-hydroxy-1-isopropylmercaptobutane]

Inhibition (@ 10^-6): 56%
SMILES: CC(C)CC(NC(=O)C(Cc1cnc[nH]1)NC(=O)C(Cc1ccccc1)NC(=O)OC(C)(C)C)C(O)CSc1ccccc1 (stereo not drawn) [Example 23, Boc-Phe-His amide of 3-amino-2 hydroxy-5-methyl 1-phenylmercaptohexane]
